Assay results from PubChem BioAssay (NCI).
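Interpolation was linear, between the two tested concentrations surrounding the appropriate level; five concentrations were tested over 48 hours in 96-well plates. TGI: total growth inhibition.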

Legend:
Experiment in all cases: inhibition of tumour cell growth, NCI panel, 48 h
[1] = tested on: RXF-631 renal
[2] = tested on: SNB-78 CNS
[3] = tested on: KM20L2 colon
[4] = tested on: M19-MEL melanoma
[5] = tested on: LXFL 529 NSCLC
[6] = tested on: DLD-1 colon
[7] = tested on: DMS 114 small cell lung
[8] = tested on: HOP-18 NSCLC
[9] = tested on: XF 498 CNS

Compound | TGI [1] [µM] | TGI [2] [µM] | TGI [3] [µM] | TGI [4] [µM] | TGI [5] [µM] | TGI [6] [µM] | TGI [7] [µM] | TGI [8] [µM] | TGI [9] [µM]
O=C(O)Cn1c(=O)[nH]c(=O)c2[nH]cnc21 | > 100 | > 100 | > 100 | > 100 | > 100 | > 100 | > 100 | > 100 | –
C/C(CC(=O)NC1=CC=C(NC(=O)C/C(C)=N\Nc2ccccc2)CC1)=N/Nc1ccccc1 | > 100 | > 100 | > 100 | > 100 | > 100 | > 100 | > 100 | > 100 | > 100
COc1cc(C)c(C)c(OC(=O)c2c(C)c(C)c(OC)c(C)c2OC)c1C | 69.1 | > 100 | 19.6 | 46.6 | > 100 | > 100 | 15.5 | > 100 | 40
O=S(=O)(O)c1cc(N=Nc2cc(S(=O)(=O)O)c3cccnc3c2O)ccc1/C=C/c1ccc(N=Nc2cc(S(=O)(=O)O)c3cccnc3c2O)cc1S(=O)(=O)O | > 100 | > 100 | > 100 | > 100 | > 100 | > 100 | > 100 | > 100 | > 100
COC(=O)c1ccccc1NC(=O)C(=O)CC(=O)CC(c1ccccc1)c1c(O)c2ccccc2oc1=O (centres undefined) | > 100 | – | > 100 | > 100 | – | > 100 | > 100 | – | –
CN(C)CC1(Cc2ccccc2)CCC(Cc2ccccc2)C1=O (centres undefined) | – | 43.4 | 32.4 | 32 | 7.32 | 8.26 | 36.4 | 21.3 | 36.3
CC(C)(Oc1ccc2c(=O)cc(-c3ccccc3)oc2c1)C(=O)Nc1c(Cl)cccc1Cl | – | > 100 | > 100 | > 100 | > 100 | – | > 100 | > 100 | 72.2
CCc1cccc(CC)c1NC(=O)C1=C(C)NC(C)=C(C(=O)Nc2c(CC)cccc2CC)C1c1ccc2c(c1)OCO2 | – | 52.3 | 30.5 | 30.9 | 29.3 | 50.3 | – | 61.2 | –
COC(=O)C1N=CSCC1(C)O (centres undefined) | – | > 100 | > 100 | > 100 | – | > 100 | > 100 | > 100 | > 100
CC(=O)NC(CCCNC(=O)NCCCl)C(=O)NCc1ccccc1 (centres undefined) | > 100 | – | > 100 | > 100 | > 100 | – | > 100 | > 100 | –
COc1ccc(NC(=O)CC(=O)N/N=C/c2ccc(N(CCC#N)S(=O)(=O)c3ccccc3)cc2)cc1 | > 100 | > 100 | > 100 | > 100 | > 100 | > 100 | > 100 | > 100 | > 100
Brc1ccc2c(c1)C1C(CO2)C(c2ccccc2)=NN1c1ccccc1 (centres undefined) | – | > 100 | > 100 | > 100 | > 100 | > 100 | > 100 | > 100 | > 100
COC(=O)CCc1cccnc1/C=N/O | > 100 | > 100 | > 100 | > 100 | > 100 | > 100 | > 100 | > 100 | –
COc1ccc(N2C(=O)[C@@H]3[C@H](C2=O)c2[nH]c4ccccc4c2C2CCC(C(C)(C)C)C[C@@H]23)cc1 (some centres undefined) | – | 59.5 | > 100 | > 100 | > 100 | > 100 | – | – | > 100
Cn1nc2ccc3nccc(N(CCO)CCO)c3c2n1 | – | > 100 | > 100 | > 100 | > 100 | > 100 | – | > 100 | > 100
CCCCCCCCCCCCn1[nH]c(C)c(C(=S)SCCCCCCCC)c1=O | > 100 | > 100 | > 100 | 67.7 | > 100 | > 94.6 | > 79.4 | > 100 | > 100
CCN(CC)Cc1cc(Nc2c3ccccc3nc3c4ccccc4n(C)c23)ccc1O | 13.8 | 41.2 | 17.3 | 19 | 14.7 | 21 | 19.5 | 27.1 | 17.1
CC1C=C[C@H](Sc2ccccc2)CC[C@@]1(C)O (some centres undefined) | – | > 100 | > 100 | > 100 | > 100 | > 100 | > 100 | – | –
CSc1nc2c(c(O)c(C)c(=O)n2C2OCC(OC(C)=O)C(OC(C)=O)C2OC(C)=O)c(=O)n1C (centres undefined) | – | > 100 | > 100 | > 100 | > 100 | > 100 | > 100 | – | –
CCCCNC(=O)CCN(C(=O)O)S(=O)(=O)c1ccc(NC(=O)c2ccccc2)cc1 | – | > 100 | > 100 | > 100 | > 100 | > 100 | > 100 | > 100 | > 100
CCC1(N=[N+]=[N-])C(=O)c2ccccc2N(c2ccccc2)C1=O (centres undefined) | – | > 100 | > 100 | > 100 | > 100 | > 100 | > 100 | > 100 | > 100
Cc1nc2c(n1CCN(C)C)C(=O)c1ccccc1C2=O | – | 78.9 | 25.8 | 4.3 | 37.3 | 26.9 | – | – | 33.1
